Earlier results in patent publication US9119805B2, “Therapy and prevention of problem drinking” (THE UNIVERSITY OF SYDNEY, priority 2009, dated 2015).
Starred links: 1 amine or outer side, 2 acyl side, 3 side chain; linkers in the order of their positions; H or OH if unused. Positions of bridges follow the written chain, without caps; N, C: chain ends. Residues, ends and D or L forms follow the SMILES beside them. X1 = O=C(CCC[*:2])[*:1]

Key:
dependent drinkers = details: cited from earlier work
[1] = compared with exogenously applied oxytocin; cited from earlier work
[2] = animal tests; cited from earlier work
vasopressin receptor = details: cited from earlier work
oxytocin receptor = oxytocin receptor (Homo sapiens, UniProt P30559); details: compared to native oxytocin; cited from earlier work
Chain of oxytocin receptor (P30559 whole entry): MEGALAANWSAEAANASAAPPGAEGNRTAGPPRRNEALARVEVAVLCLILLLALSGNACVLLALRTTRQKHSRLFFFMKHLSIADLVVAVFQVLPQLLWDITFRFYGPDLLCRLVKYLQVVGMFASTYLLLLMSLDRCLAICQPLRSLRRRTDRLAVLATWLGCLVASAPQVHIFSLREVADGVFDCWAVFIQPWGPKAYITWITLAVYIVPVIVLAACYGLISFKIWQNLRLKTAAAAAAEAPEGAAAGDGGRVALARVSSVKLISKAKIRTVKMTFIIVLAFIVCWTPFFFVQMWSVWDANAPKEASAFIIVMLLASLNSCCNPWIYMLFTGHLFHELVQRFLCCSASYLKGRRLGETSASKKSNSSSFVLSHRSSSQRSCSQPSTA

CC1(C)O[C@@H]2[C@@H](CO[C@@]3(COS(N)(=O)=O)OC(C)(C)O[C@@H]23)O1 [Topiramate]
proportion of subjects with 28 consecutive days of abstinence or non-hazardous/harmful drinking (dependent drinkers; short-term abstinence): increased the proportion

CC(=O)NCCCS(=O)(=O)O [acamprosate]
patients continuously abstinent (dependent drinkers; after 6 months, placebo 23%): about 36%

Cc1cc(C(=O)N2Cc3cnn(C)c3Nc3ccccc32)ccc1CNC(=O)N1CCN(Cc2cc(O)cc(O)c2)CC1 [WAY-267,464]
extent of crossing the blood-brain-barrier [1]: significantly greater extent than exogenously applied oxytocin | anti-depressant effect [2]: no apparent anti-depressant effect | centrally-mediated oxytocinergic actions [2]: anxiolytic effects | affinity for the vasopressin receptor (vasopressin receptor): negligible affinity

CC[C@H](C)[C@@H]1NC(=O)[C@H](Cc2ccc(OC)cc2)NC(=O)CCCSC[C@@H](C(=O)N2CCC[C@H]2C(=O)N[C@@H](CC(C)C)C(=O)NCC(N)=O)NC(=O)[C@H](CC(N)=O)NC(=O)[C@H](CCC(N)=O)NC1=O [carbetocin, 1-deamino-1-monocarba-[2-O-methyltyrosine]-oxytocin] (Y(Me)IQNCPLG-NH2; linker N-5 via X1)
duration of activity (oxytocin receptor): long-lasting activity

O=C1CC[C@@]2(O)[C@H]3Cc4ccc(O)c5c4[C@@]2(CCN3CC2CC2)[C@H]1O5 [naltrexone]
reduction of relapse (dependent drinkers; oral, during the first 3 months): about 36%
